Laboratory results: patent US20260248831A1, “NON-TUBERCULOSIS MYCOBACTERIA INFECTION TREATMENT” (AN2 Therapeutics, Inc., priority 2021, published 2026)
Counter-ions that a name gives are not always drawn.

What was measured:
NTM strains = assay: Checkerboard synergy testing, summary over all strains tested; type: cell-based, nontuberculous mycobacteria; details: clarithromycin, ethambutol, rifabutin, amikacin, bedaquiline
[1] = test system: M. intracellulare 20-S-13; assay: Checkerboard antibacterial synergy testing of EBO pairwise combinations; type: cell-based; details: M. intracellulare 20-S-13, clarithromycin resistant strain
Method: Frozen stocks of the drugs were prepared at 5 or 2 mg/ml and frozen in aliquots at −20° C. On the day of the experiment the stocks were thawed and diluted to the appropriate concentration. Middlebrook 7H9 broth and agar, CA-MH agar and Middlebrook OADC were all purchased from Becton-Dickinson and Company (Sparks, MD).
M. avium 2285R (Verma et al. Microbiol (2019) 10: 693) and M intracellulare DNA000111 were obtained from Diane Ordway (Colorado State University, Fort Collins, CO). M. chimaera 20-S-05 and the macrolide/bedaquiline-resistant M. intracellulare 20-S-13 isolate were obtained from Barbara Brown-Elliott (Mycobacteria/Nocardia Research Laboratory, University of Texas Health Science Center, Tyler Tx). […]
The checkerboard methodology was used to test for synergy and antagonism using Middlebrook 7H9+5% OADC (Dubos et al. Am Rev Tuberc (1947) 56:334-45) as the microbiology growth media. […] Synergistic or antagonistic activity was determined using the sum of the fractional inhibitory concentration (ΣFIC) index. The FTC index is calculated as the sum of FTC A+FTC B, where FTC A is the MIC of drug A in the combination of drugs A and B divided by the MIC of drug A alone, plus the MIC of drug B in the combination of drugs A and B divided by the MIC of drug B alone. […]

MAC strains = assay: Checkerboard synergy testing, summary over the MAC strains tested; type: cell-based, Mycobacterium avium complex; details: out of a total of 5 MAC strains tested
[2] = in vivo; cited from earlier work

With NC[C@H]1OB(O)c2c(OCCCO)cccc21 [EBO, epetraborole hydrochloride] the “Antagonism of EBO activity by second drug” value (NTM strains) was “not antagonized”.

For CC[C@@H](CO)NCCN[C@@H](CC)CO [EMB, Ethambutol], the “Interaction between ethambutol and EBO (in words)” value [1] was “indifference” and the “Synergy/additivity with EBO, number of strains” value (MAC strains) was “synergy was observed with 2 strains and additivity with an additional 2 strains”.

In the case of NC[C@H]1OB(O)c2c(OCCCO)cccc21 [epetraborole, Epetraborole], the “Course of hematological abnormalities” value [2] is listed as “return to baseline values after discontinuation of epetraborole” and the “RBC parameters (including hemoglobin, RBCs, and reticulocyte counts)” value [2] is listed as “Decreases in RBC parameters”.
